The values below are quoted from earlier work in patent US20030171329A1, “Stable compositions comprising tezacitabine” (priority 2002, published 2003).

SMILES strings stand for the structures. Like-named read-outs stand apart in the source and are kept apart here.

For data set [1] the following is noted: cited from earlier work.
Data set [2] has as its target T1, ribonucleotide reductase (Homo sapiens, UniProt P23921).
T1 sequence (P23921 1-792): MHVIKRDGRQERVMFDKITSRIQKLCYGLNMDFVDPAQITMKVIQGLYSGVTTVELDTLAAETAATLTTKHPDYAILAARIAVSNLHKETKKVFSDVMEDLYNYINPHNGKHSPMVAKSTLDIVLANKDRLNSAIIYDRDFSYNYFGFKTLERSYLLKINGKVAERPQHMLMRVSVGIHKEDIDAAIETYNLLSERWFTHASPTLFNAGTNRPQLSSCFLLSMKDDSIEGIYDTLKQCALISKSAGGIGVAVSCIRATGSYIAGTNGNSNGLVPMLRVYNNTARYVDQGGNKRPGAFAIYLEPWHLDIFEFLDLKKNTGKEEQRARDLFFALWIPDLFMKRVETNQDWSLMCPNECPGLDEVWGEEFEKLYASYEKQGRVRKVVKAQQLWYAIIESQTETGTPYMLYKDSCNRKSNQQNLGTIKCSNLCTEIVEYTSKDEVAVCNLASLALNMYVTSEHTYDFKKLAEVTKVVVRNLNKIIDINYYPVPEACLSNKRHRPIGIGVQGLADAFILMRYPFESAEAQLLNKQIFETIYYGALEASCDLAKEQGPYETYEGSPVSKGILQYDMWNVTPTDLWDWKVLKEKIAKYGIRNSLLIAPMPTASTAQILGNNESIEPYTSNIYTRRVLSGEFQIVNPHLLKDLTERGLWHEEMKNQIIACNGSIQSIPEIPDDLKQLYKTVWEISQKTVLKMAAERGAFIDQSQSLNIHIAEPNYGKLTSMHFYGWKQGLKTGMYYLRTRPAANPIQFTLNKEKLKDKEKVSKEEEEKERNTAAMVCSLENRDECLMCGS
T1 sequence (P31350 1-389 partner): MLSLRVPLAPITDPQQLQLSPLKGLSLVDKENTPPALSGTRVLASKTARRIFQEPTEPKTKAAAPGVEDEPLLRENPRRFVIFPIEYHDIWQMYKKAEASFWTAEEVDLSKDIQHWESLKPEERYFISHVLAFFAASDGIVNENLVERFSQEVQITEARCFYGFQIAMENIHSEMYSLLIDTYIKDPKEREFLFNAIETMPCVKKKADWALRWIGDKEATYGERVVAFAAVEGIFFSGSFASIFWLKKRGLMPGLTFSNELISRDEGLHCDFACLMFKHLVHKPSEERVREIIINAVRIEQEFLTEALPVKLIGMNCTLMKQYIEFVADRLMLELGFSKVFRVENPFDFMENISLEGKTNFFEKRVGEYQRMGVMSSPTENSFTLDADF
As to conditions: cited from earlier work.

Data set [3] concerns replicating strand of DNA. As to conditions: incorporated directly into the replicating strand of DNA; cited from earlier work.

In the case of `Nc1ccn([C@@H]2O[C@H](CO)[C@@H](O)[C@@H]2O)c(=O)n1` [Cytarabine], the “pH of best stability” value in data set [1] (aqueous solution) is “most stable at neutral pH (7-8)”.

For the compound `Nc1ccn([C@@H]2O[C@H](CO)[C@@H](O)C2(F)F)c(=O)n1` [Gemcitabine], the stability in words entry in data set [1] (acid conditions (low pH)) is “relatively stable”; in data set [1] (high pH) it was “considerably less stable”.

As to `Nc1ccn(C2OC(COP(=O)(O)OP(=O)(O)O)C(O)C2=CF)c(=O)n1` (centres unmarked) [tezacitabine diphosphate], in data set [2], the “effect on ribonucleotide reductase” value is given as “inhibits ribonucleotide reductase”.

Turning to `Nc1ccn(C2OC(COP(=O)(O)OP(=O)(O)OP(=O)(O)O)C(O)C2=CF)c(=O)n1` (centres unmarked) [tezacitabine triphosphate], the “effect on DNA synthesis” value in data set [3] is “causes premature chain termination”.
